Marks after values point to notes of the source that are not given here.
Tests used:
human brain disease = assay: research in treating human brain diseases (no details); type: in vivo
[1] = system: cerebral hemorrhage in rats induced by collagenase; assay: ICH model induced by collagenase: NE in brain tissue by ELISA; type: in vivo, Wistar rats
Text: Rats in each group were anesthetized by chloral hydrate, decollated rapidly and the brains were taken out. The brain tissue around the hole was cut and procured, weighed precisely, and made into a 10% tissue homogenate using a glass homogenizer in an ice bath environment with physiological saline as homogenized medium, the supernatant of which was taken to be determined the NE activity using ELISA method.

[2] = system: cerebral hemorrhage in rats induced by collagenase; assay: cerebral hemorrhage (ICH) model induced by collagenase: neurology score; type: in vivo, Wistar rats
Experimental: (§1) Animals are randomly divided into five groups: sham operation 24 h group; cerebral hemorrhage (Intracerebral Haemorrhage, ICH)+physiological saline group (model); ICH+piperphentonamine hydrochloride (JBTA, 2 mg/kg) group, called as high dose group (h); ICH+piperphentonamine hydrochloride (JBTA, 0.5 mg/kg) group, called as low dose group (1); ICH+nimodipine (Nim, 0.5 mg/kg) group. The last four groups are divided into 4 h, 8 h, 12 h, 24 h as four time subgroups respectively. Physiological saline solution, piperphentonamine hydrochloride and nimodipine are intravenously injected from rat tail before the ICH model is established for 30 minutes, once a day. Injecting slowly, the total amount of drug liquid is controlled in 1 ml/200 g body weight: physiological saline solution also being administered in 1 ml/200 g body weight. Each group has 7 Wistar rats.
The specific steps are as following: after the experimental rats are anesthetized by injecting chloral hydrate (350 mg/kg) in intraperitoneal, and being supinely immobilized in a stereotaxic instrument, and make the rat anterior fontanelle and posterior fontanelle in the same plane according to localization method reported by BAO Xinmin, etc. Being locally disinfected by iodine, incising in the midmost of scalp, scissoring the periosteum, exposing the anterior fontanelle, drilling a 1 mm diameter hole with thickness close to duramater in 3 mm left to the midline by number five needle. Inserting needle along the hole by the micro syringe fixed on a stereotaxic, the depth of needle insertion is 5.8 mm (i.e., the caudate nucleus position), slowly injecting collagenase VI 0.5 U. Injection time is 3 min, keeping for 5 min after injection, then pull the needle out, suturing the skin, and putting the rat into cage and feed. Inserting the needle and not injecting drugs in sham operation group, the remaining operations is the same as the above.
After animals wake up, scoring nerve function defect of each group immediately according to the grading classification standards of nerve defect reported by Bedersog (litter improved).
Choosing the animals with the score of 3 and more into the experiment, the animals are bred in different cages, eat and drink normally. Temperature is controlled in 20 to 25° C., score in 4 h, 8 h, 12 h, 24 h after establishment of the model.
(§2) Divide the animals randomly into five groups: sham operation (sham) 24 h group; ICH+normal saline group (model); ICH+piperphentonamine maleate (4 mg/kg) group, namely high dose group (h); ICH+piperphentonamine maleate (2 mg/kg) group, namely low dose group (1); ICH+nimodipine (0.5 mg/kg) group. The last four groups were divided into four time subgroup of 4 h, 8 h, 12 h and 24 h. Physiological solution, piperphentonamine maleate and nimodipine were injected intravenous from rat tail vein 30 minutes before the ICH model made, once a day. Inject slowly, the total amount of drug liquid was controlled in 1 ml/200 g body weight: normal saline was also administered in 1 ml/200 g body weight. Each group has seven Wistar rats.

[3] = system: cerebral hemorrhage in rats induced by collagenase; assay: ICH model induced by collagenase: brain water content (BWC); type: in vivo, Wistar rats
Experimental: as §1
Observing the influence of piperphentonamine hydrochloride on the brain water content of intracerebral hemorrhage in rats in 4 h, 8 h, 12 h, 24 h, the animals of the different groups is anesthetized by chloral hydrate at predetermined time point, and decollating and taking the brain rapidly, putting the brain tissue on a filter paper wetted by saline solution to prevent water evaporating. Removing the leptomeninges and blood, cutting and taking the front half portion of brain tissue centered by the hole for the insertion needle, weighing precisely (accurate to 0.1 mg). It is controlled in 5 min to take the brain to finish weigh. Then putting in 95° C. constant temperature oven for 24 h, weighing the dry weight. The brain water content is calculated according to Blliot formula: BWC=(wet weight−dry weight)/wet weight×100%.
as §2

[4] = system: cerebral edema of mice caused by closed cerebral trauma; assay: closed cerebral trauma model of mice, brain water content; type: in vivo, Kunming mice; settings: brain taken after 24 h
Experimental: There were 10 mice in each group.
The closed cerebral trauma model of mice being established after fasting for 16 hours, administering intravenously to each group, striping and taking the brain of mouse after 24 hours, weighing the wet weight, and drying at 70° C. for 24 hours, then weighing the dry weight, and calculating brainwater content; the brain water content which is higher than normal values indicates the cerebral edema.
The grouping method, administer method and model preparation were referred to example 2.

[5] = system: cultured cerebral neurons; assay: NMDA induces neuron injury in primary cultured neurons; type: cell-based, rat; settings: 12 h; for mortality: NMDA 50 mmol/L
[6] = system: infective brain edema of rats (pertussis bacteria liquid); assay: infective cerebral edema: IL-1β, TNF-α (ELISA) and NO (Griess) in cerebral tissue; type: in vivo, SD rats; settings: rat cerebral tissue, 4 h
Experimental: Determine the content of IL-1β, TNF-α and NO by using ELISA and Griess method.
Model preparation was same as that of example 4. Piperphentonamine acetate group was intraperitoneally injected with 0.5 mg/kg daily for 2 days 48 h before the injection of pertussis bacterial liquid. Rats in each group were decollated after being injected with bacterial liquid or saline 4 h. ELISA method and Griess method were used to measure the content of IL-1β, TNF-α and NO in brain homogenate of infectious brain edema model of rats.

[7] = system: infective brain edema of rats (pertussis bacteria liquid); assay: infective cerebral edema by pertussis bacteria liquid: brain water, sodium and potassium ion content; type: in vivo, SD rats; design: Na^+ / K^+: unit not given here; settings: pretreatment 0.5 mg/kg iv daily, two days; 4 h after bacteria liquid
[8] = 0.5 mg/kg iv 30 min before ICH, 4 h
[9] = 0.5 mg/kg iv 30 min before ICH, 8 h
[10] = 0.5 mg/kg iv 30 min before ICH, 12 h
[11] = 0.5 mg/kg iv 30 min before ICH, 24 h
[12] = 2 mg/kg iv 30 min before ICH, 4 h
[13] = 2 mg/kg iv 30 min before ICH, 8 h
[14] = 2 mg/kg iv 30 min before ICH, 12 h
[15] = 2 mg/kg iv 30 min before ICH, 24 h

CN(CCC(=O)/C=C/c1ccc(O)cc1)CCc1ccc2c(c1)OCO2.Cl [piperphentonamine hydrochloride, Piperphentonamine hydrochloride]
treating human brain and other diseases (human brain disease): obvious effect and clinical significance
NE ([1]; 2 mg/kg, ICH rat brain tissue homogenate): 1.61 ± 0.044^a ng/ml
brain tissue NE activity ([1]; high and low dose group (2, 0.5 mg/kg)): could decrease the brain tissue NE activity significantly
neurological score [2, 8]: 4.5 ± 0.87
neurological score [2, 9]: 4.29 ± 1.02
neurological score [2, 10]: 3.65 ± 1.19
neurological score [2, 11]: 3.21 ± 1.61
neurological score [2, 12]: 4.07 ± 0.74
neurological score [2, 13]: 3.86 ± 1.19
neurological score [2, 14]: 2.36 ± 0.8*^Δ
neurological score [2, 15]: 1.71 ± 0.57**^Δ
brain water content (%) [3, 8]: 79.90 ± 0.84^Δ %
brain water content (%) [3, 9]: 81.19 ± 0.78^ΔΔ %
brain water content (%) [3, 10]: 82.70 ± 0.76^ΔΔ %
brain water content (%) [3, 11]: 84.98 ± 0.65^ΔΔ %
brain water content (%) [3, 12]: 79.29 ± 0.69 %
brain water content (%) [3, 13]: 79.73 ± 0.53^Δ** %
brain water content (%) [3, 14]: 80.75 ± 0.19^ΔΔ** %
brain water content (%) [3, 15]: 82.38 ± 0.73^ΔΔ** %
water content of cerebra (%) ([4]; 1 mg/kg iv): 82.05 ± 7.57 %
water content of cerebra (%) ([4]; 2 mg/kg iv): 78.67 ± 5.38 %
water content of cerebra (%) ([4]; 4 mg/kg iv): 75.43 ± 8.38 %
mortality ([5]; drug 10 mmol/L, hydrochloride): 38%
mortality ([5]; drug 10 mmol/L, listed as JBTA2, hydrochloride): 38%
mortality ([5]; drug 100 mmol/L, hydrochloride): 24%
mortality ([5]; drug 100 mmol/L, listed as JBTA2, hydrochloride): 24%
morphological change of culture neuron ([5]; drug 10): the degree of cell injury reduces significantly
IL-1β [6]: 318.4 ± 43.8^2)3) pg/g
NO [6]: 86.1 ± 5.9^2)3) nmol/g
TNF-α [6]: 499.7 ± 134.9^2)3) pg/g
K^+ [7]: 436.3 ± 43.9
Na^+ [7]: 181.1 ± 26.1
water content of brain (%) [7]: 69.8 ± 0.44^3) %

Source: patent US8916607B2, “Use of piperphentonamine or salts thereof in manufacture of medicaments for treating brain diseases” (Guangzhou Municipal Zhongwei Biotechnology Limited Company, priority 2009, dated 2014)
